Format in all cases: physicochemical
Series [1] is described as follows: Polymorphism studies (cooling, slow evaporation, maturation; XRPD). The following applies: 8 days maturation RT/50° C., solids analysed by XRPD. The protocol:
Samples found as clear solutions at −20° C. were placed for slow evaporation at RT using a 25-gauge syringe needle(s) in the septum of the vial. • The solid suspensions observed in 100 volumes of the relative solvent systems at the end of the solubility assessment were placed for 8 days maturation cycling between RT and 50° C. (cycling 4 hours at RT; 4 hours at 50° C.). After the maturation, the solids were recovered and the supernatants were placed for slow evaporation. All the solids obtained by these processes were analyzed by XRPD.

Series [2] in a line: Stability of Form A on exposure to humidity/temperature. The protocol:
A comprehensive polymorphism assessment of selinexor was performed in a range of different solvents, solvent mixtures and under a number of experimental conditions based on the solubility of selinexor. Three anhydrous polymorphs of selinexor were observed by XRPD investigation, designated Form A, Form B and Form C.

Series [3] in a line: Competitive slurry experiment (Form A, Form C, seed of Form B). The following applies: about 1:1 Form A and Form C with Form B seed; matured at 5, 25, 50° C. in ethyl acetate, 30% IPA:70% water, 30% ethanol:70% water; 72 hours and 1 week; in acetonitrile the solvate formed. The protocol: In a competitive slurry experiment, approximately 1:1 mixtures of Form A and Form C were prepared. The mixtures were then stirred with a seed of Form B (about 5% by weight of the mixture of Form A and Form C). The produced systems were matured at 5° C., 25° C. and 50° C. under stirring in acetonitrile, ethyl acetate, 30% IPA:70% water and 30% ethanol:70% water. The systems were analyzed by XRPD at two different time points: 72 hours and 1 week.
Form D was observed by maturation in acetonitrile. This experiment confirmed Form A as the stable form, compared to Form B and Form C, under the conditions investigated. The presence of acetonitrile led to solvate formation at all of the temperatures investigated.

Series [4] can be described thus: Particle size analysis (Malvern MS2000, volume-based). The following applies: for d10: 10% of total particle volume no larger than this size, 0.1% lecithin in Isopar G dispersant; for d50: 50% of total particle volume no larger than this size; for d50 / d90 / D[4,3] Volume weighted mean: lecithin in Isopar G dispersant; for d90: 90% of total particle volume no larger than this size; for D[4,3] Volume weighted mean: in µm; for Characteristic of the particle size distribution: overlay of particle size distributions. From the text: Particle size data was acquired using a Malvern Instruments MS2000 equipped with a Hydro2000 μP dispersion unit. Data was collected and analyzed using Mastersizer 2000 v 5.60 software, using volume-based measurements. NIST-traceable glass beads were used as the reference standard.
Details of the method conditions used to analyze particle size are listed below: • Sample refractive index: 1.596 • Sample absorption: 0.001 • Dispersant: 0.100 (w/v) Lecithin in Isopar G • Dispersant refractive index: 1.42 • Pump speed: 2100 rpm • Recirculation time: 2 minutes • Sample measurement time: 30 sec. • Background measurement time: 30 sec. • Model: general purpose • Sensitivity: normal • Particle shape: irregular.
One particle size measurement of each lot of selinexor described in Examples 1-6 was collected using the particle size method conditions described above. Table 4 provides sample information and particle size analysis data for the indicated lot of selinexor under the particle size method analysis conditions described above. FIGS. 5A-5P are particle size distribution graphs and show the particle size distribution of the sample corresponding to the indicated lot of selinexor under the particle size method analysis conditions described above.

Series [5] is described as follows: Solubility assessment (visual) of selinexor in solvents and solvent mixtures. The following applies: for Solubility: starting Form A.

Turning to `O=C(/C=C\n1cnc(-c2cc(C(F)(F)F)cc(C(F)(F)F)c2)n1)NNc1cnccn1` [Form A], the “Stability of the form under solvent-based experimentation” value in series [1] is given as “stable in most of the conditions investigated”. Moreover, the Physico-chemical stability result in series [2] (exposed for 4 weeks to 25° C./97% relative humidity (RH)) and in series [2] (exposed for 4 weeks to 40° C./75% RH) was “stable” each time. For the same molecule, the “Relative stability of forms in competitive slurry” value in series [3] is reported as “stable anhydrous form”.

Consider `O=C(/C=C\n1cnc(-c2cc(C(F)(F)F)cc(C(F)(F)F)c2)n1)NNc1cnccn1` [Lot No. 1339-BS-142-1], for which, in series [4] (listed as 1339-BS-142-1), the d10 amounted to 4.978 μm, the d50 was 11.969 μm, the d90 was determined as 28.331 μm and the “D[4,3] Volume weighted mean” value was 16.614. Moreover, the “Characteristic of the particle size distribution” value (“Characteristic” for short) in series [4] (listed as 1339-BS-142-1) was “more a unimodal characteristic”.

Turning to `O=C(/C=C\n1cnc(-c2cc(C(F)(F)F)cc(C(F)(F)F)c2)n1)NNc1cnccn1` [Lot No. 1339-BS-142-2], in series [4] (listed as 1339-BS-142-2), the d10 is reported as 6.088 μm, the d50 came to 14.468 μm, the d90 stood at 33.936 μm and the “D[4,3] Volume weighted mean” value stood at 20.889. The “Characteristic” value in series [4] (listed as 1339-BS-142-2) is listed as “more a unimodal characteristic”.

On to `O=C(/C=C\n1cnc(-c2cc(C(F)(F)F)cc(C(F)(F)F)c2)n1)NNc1cnccn1` [Lot No. 1341-AK-109-2], for which, in series [4] (listed as 1341-AK-109-2), the d10 amounted to 2.815 μm, the d50 was determined as 10.423 μm, the d90 is 89.782 μm and the “D[4,3] Volume weighted mean” value was found to be 32.779. The “Characteristic” value in series [4] (listed as 1341-AK-109-2) is “distinctly bimodal”.

Consider `O=C(/C=C\n1cnc(-c2cc(C(F)(F)F)cc(C(F)(F)F)c2)n1)NNc1cnccn1` [Lot No. 1305365], for which, in series [4] (listed as 1305365), the d10 was determined as 4.905 μm, the d50 was determined as 14.268 μm, the d90 turned out to be 75.098 μm and the “D[4,3] Volume weighted mean” value is on record as 34.740.

Consider `O=C(/C=C\n1cnc(-c2cc(C(F)(F)F)cc(C(F)(F)F)c2)n1)NNc1cnccn1` [Lot No. 1405463], for which, in series [4] (listed as 1405463), the d10 was found to be 12.062 μm, the d50 is listed as 27.653 μm, the d90 came to 64.876 μm and the “D[4,3] Volume weighted mean” value was 33.740.

With `O=C(/C=C\n1cnc(-c2cc(C(F)(F)F)cc(C(F)(F)F)c2)n1)NNc1cnccn1` [Lot No. PC-14-005], the Minor tertiary mode result in series [4] is “approximately 400 μm”. For the same molecule, in series [4] (listed as PC-14-005), the d10 came out at 6.363 μm, the d50 was 18.345 μm, the d90 is 86.906 μm and the “D[4,3] Volume weighted mean” value is 36.720.

Consider `O=C(/C=C\n1cnc(-c2cc(C(F)(F)F)cc(C(F)(F)F)c2)n1)NNc1cnccn1` [Lot No. PC-14-008], for which, in series [4] (listed as PC-14-008), the d10 is reported as 7.658 μm, the d50 was 18.290 μm, the d90 is recorded as 42.616 μm and the “D[4,3] Volume weighted mean” value was found to be 22.451. Further, in series [4] (listed as PC-14-008), the “Characteristic” value is “more a unimodal characteristic”.

Regarding `O=C(/C=C\n1cnc(-c2cc(C(F)(F)F)cc(C(F)(F)F)c2)n1)NNc1cnccn1` [Lot No. PC-14-009], in series [4] (listed as PC-14-009), the d10 was 9.665 μm, the d50 was 24.406 μm, the d90 is 68.445 μm and the “D[4,3] Volume weighted mean” value is on record as 32.557. The “Characteristic” value in series [4] (listed as PC-14-009) is given as “more a unimodal characteristic”.

As to `O=C(/C=C\n1cnc(-c2cc(C(F)(F)F)cc(C(F)(F)F)c2)n1)NNc1cnccn1` [Selinexor, (Z)-3-(3-(3,5-bis(trifluoromethyl)phenyl)-1H-1,2,4-triazol-1-yl)-N′-(pyrazin-2-yl)acrylohydrazide], the Solubility entry in series [5] (20% MeCN:80% Water, volumes of solvent) is given as “Not dissolved in 100 v”; in series [5] (40% MeCN:60% Water, volumes of solvent) it was “Not dissolved in 100 v”; in series [5] (60% MeCN:40% Water, volumes of solvent) it was “Dissolved in 50 v”; in series [5] (80% MeCN:20% Water, volumes of solvent), “Dissolved in 30 v”; in series [5] (90% MeCN:10% Water, volumes of solvent), “Dissolved in 30 v”; in series [5] (Acetonitrile, volumes of solvent (1 volume in μL = sample mg), assessed at 50° C. and RT), “Dissolved in 70 v”. The “Solubility (visual)” value is “soluble” in series [5] (IPA:water mixtures having up to 60% water); “soluble” in series [5] (acetonitrile:water mixtures having up to 40% water); “not soluble” in series [5] (heptane, 1,2-dichloroethane, toluene, cumene, diisopropylether, water and isooctane, 5 to 100 volumes). Besides, in series [5] (thirty solvents and solvent mixtures, 50° C./RT), the “Share of the solvent systems investigated in which soluble” value is “about 60 % of the solvent systems investigated”.

The values above are taken from US11746102B2, “Polymorphs of selinexor” (Karyopharm Therapeutics Inc., priority 2014, dated 2023).
